Results reported in ChEMBL document CHEMBL6078670, “Discovery of a potent and selective TRPC3 antagonist with neuroprotective effects” (Bioorg Med Chem, 2025).
Calls of active or inactive are those of the source. No cut-off for these calls is given here.

How the values were obtained:
Hippocampal neurone = test: Rescuing beta-amyloid induced neuronal cell damage in Sprague-Dawley rat primary hippocampal cell culture (composed of 60% primary neuron, 20% microglia and 20% astrocyte) assessed as decrease in soluble oligomeric Abeta-containing media (7PA2 cells) induced functional synapses by measuring decrease in PSD95 clustering level at 100 nM; assay type: cell-based
[1] = molecular target: T1, Short transient receptor potential channel 7 (Homo sapiens) (UniProt Q9HCX4); test: Antagonist activity at human TRPC7 expressed in HEK293 cells assessed as inhibition of carbachol-induced activity at 10 uM measured after 48 hrs by Whole-cell patch clamp electrophysiology; assay type: cell-based
T1 sequence (whole entry): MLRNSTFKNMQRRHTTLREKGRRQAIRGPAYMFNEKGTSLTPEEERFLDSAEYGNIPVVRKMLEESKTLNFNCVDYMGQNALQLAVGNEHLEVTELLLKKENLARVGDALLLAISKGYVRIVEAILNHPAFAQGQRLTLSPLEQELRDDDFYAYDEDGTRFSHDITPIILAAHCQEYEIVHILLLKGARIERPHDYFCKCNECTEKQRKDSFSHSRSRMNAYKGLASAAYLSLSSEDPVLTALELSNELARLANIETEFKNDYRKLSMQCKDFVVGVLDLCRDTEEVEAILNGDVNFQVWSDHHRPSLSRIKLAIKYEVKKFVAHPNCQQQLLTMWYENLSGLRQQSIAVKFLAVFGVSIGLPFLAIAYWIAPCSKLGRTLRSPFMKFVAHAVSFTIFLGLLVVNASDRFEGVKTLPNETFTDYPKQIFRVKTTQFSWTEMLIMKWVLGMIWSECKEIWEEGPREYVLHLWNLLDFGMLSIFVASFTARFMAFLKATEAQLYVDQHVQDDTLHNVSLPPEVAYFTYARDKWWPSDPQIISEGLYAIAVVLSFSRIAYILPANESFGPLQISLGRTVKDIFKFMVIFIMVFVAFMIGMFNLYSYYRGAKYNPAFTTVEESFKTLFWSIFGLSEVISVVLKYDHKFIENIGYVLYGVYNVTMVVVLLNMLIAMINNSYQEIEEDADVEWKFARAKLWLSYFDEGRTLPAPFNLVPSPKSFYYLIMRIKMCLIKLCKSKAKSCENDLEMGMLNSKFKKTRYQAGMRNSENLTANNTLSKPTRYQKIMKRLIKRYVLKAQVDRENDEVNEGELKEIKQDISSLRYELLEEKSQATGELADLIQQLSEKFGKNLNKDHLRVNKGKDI

Cytochrome P450 2C9 = Cytochrome P450 2C9 (Homo sapiens, UniProt P11712); test: Inhibition of human liver microsomes CYP2C9 measured after 10 mins incubation by LC-MS analysis; assay type: ADME, Microsome
Sequence of Cytochrome P450 2C9 (P11712 whole entry): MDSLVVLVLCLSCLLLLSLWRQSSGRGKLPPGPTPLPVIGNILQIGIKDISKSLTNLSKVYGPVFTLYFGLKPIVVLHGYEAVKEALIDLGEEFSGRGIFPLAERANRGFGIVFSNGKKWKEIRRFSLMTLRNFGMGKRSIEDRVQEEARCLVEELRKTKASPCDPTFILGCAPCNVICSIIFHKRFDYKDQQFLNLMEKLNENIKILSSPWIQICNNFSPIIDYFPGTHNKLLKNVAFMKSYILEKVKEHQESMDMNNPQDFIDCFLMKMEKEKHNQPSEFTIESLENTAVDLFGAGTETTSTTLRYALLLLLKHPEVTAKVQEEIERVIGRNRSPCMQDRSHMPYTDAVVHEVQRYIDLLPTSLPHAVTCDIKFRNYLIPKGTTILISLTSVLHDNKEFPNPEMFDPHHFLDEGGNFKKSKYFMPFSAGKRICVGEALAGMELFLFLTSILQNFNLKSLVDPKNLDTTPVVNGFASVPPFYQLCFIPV

[2] = Metabolic stability in mouse liver microsomes assessed as intrinsic clearance measured up to 60 mins by LC-MS/MS analysis; assay type: ADME, Microsome; conditions: 1 h
Cytochrome P450 1A2 = molecular target: T2, Cytochrome P450 1A2 (Homo sapiens, UniProt P05177); test: Inhibition of human liver microsomes CYP1A2 measured after 10 mins incubation by LC-MS analysis; assay type: ADME, Microsome
T2 sequence (P05177 whole entry): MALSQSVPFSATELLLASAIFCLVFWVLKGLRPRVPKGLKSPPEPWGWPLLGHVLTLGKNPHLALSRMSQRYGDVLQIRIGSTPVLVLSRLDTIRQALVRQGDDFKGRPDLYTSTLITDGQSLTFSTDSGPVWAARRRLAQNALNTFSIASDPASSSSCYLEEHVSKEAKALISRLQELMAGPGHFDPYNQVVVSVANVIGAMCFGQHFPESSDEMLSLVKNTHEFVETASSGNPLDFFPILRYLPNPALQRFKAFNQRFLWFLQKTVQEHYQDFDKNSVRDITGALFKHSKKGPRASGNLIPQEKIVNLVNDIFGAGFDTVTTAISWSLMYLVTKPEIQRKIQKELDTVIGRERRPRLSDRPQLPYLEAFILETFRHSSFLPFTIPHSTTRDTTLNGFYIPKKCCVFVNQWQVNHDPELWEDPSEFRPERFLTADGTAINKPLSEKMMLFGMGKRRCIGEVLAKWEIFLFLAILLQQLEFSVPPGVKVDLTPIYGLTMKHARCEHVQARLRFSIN

Cytochrome P450 2C19 = Cytochrome P450 2C19 (Homo sapiens, UniProt P33261); test: Inhibition of human liver microsomes CYP2C19 measured after 10 mins incubation by LC-MS analysis; assay type: ADME, Microsome
Sequence of Cytochrome P450 2C19 (P33261 whole entry): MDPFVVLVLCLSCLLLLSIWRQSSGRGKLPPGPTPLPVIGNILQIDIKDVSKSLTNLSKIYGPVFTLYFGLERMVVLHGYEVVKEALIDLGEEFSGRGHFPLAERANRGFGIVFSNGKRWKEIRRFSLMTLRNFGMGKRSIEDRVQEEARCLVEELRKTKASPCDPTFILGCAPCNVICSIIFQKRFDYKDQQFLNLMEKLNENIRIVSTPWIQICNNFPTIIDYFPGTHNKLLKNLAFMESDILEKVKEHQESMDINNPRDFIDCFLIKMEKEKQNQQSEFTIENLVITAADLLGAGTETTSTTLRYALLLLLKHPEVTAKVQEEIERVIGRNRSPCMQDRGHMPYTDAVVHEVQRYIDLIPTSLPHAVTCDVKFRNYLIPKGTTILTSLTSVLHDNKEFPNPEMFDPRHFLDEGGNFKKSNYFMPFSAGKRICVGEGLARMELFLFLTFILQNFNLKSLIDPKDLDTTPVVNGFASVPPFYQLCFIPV

## CCNCc1cnn(-c2ccc(-n3ccc(Cl)c(Cl)c3=O)cc2)c1C(F)(F)F
Hippocampal neurone
  Activity: Active
[1]
  Activity: inactive
Cytochrome P450 2C9
  IC50: > 50 µM
[2]
  CLH: 33 µL/min/mg
Cytochrome P450 1A2
  IC50: > 50 µM
Cytochrome P450 2C19
  IC50: 41.5 µM
